Results from patent publication US4749710A, “Immunosuppressive agents” (priority 1985, dated 1988).

How the values were obtained:
[1] = test system: human mixed leukocyte-tumor cultures; experiment: Total viable cells recovered from human mixed leukocyte-tumor cultures; format: cell-based; settings: Table IV
Experimental: Human cytotoxic T-lymphocytes were generated in mixed leukocyte-tumor cultures by known methods. Specifically, blood from normal volunteer donors was drawn into heparinized syringes, diluted 1:1 with calcium-magnesium free Hanks' balanced salt solution (Ca-Mg free HBSS), and layered over lymphocyte separation medium (Litton Bionetics, Kensington, MD). After centrifugation at 500xg for 20-30 min at room temperature, peripheral blood mononuclear cells were harvested from the interface. The peripheral blood mononuclear leukocytes were centrifuged and resuspended in Ca-Mg free HBSS and were subsequently separated from platelets by centrifugation at 500xg through a solution of 20% sucrose and 1% human AB serum in Ca-Mg free HBSS. The cells were washed once and finally resuspended in tissue culture medium. […] Cells to be used as stimulator cells in mixed leukocyte-tumor cultures were irradiated with 10,000 rads of gamma irradiation to preclude proliferation in culture. Mixed leukocyte-tumor cell cultures were established in 16 mm tissue culture wells at a final volume of 1.5 ml per well containing 2×10^6 peripheral blood mononuclear leukocytes and 5×10^4 irradiation-inactivated stimulator cells. […]

[2] = test system: cytotoxic T-lymphocyte responses (P815 tumor cells); experiment: Suppression of murine CTL responses in vivo (mice immunized with P815 cells); parameters: species or system C57BL/6 mice; settings: for CTL activity (% specific ^51 Cr release): day 10; for CTL activity (% specific ^51 Cr release) / Inhibition of CTL activity (%): effector to target 10:1
Experimental: General description. The general test considerations are similar to those previously described for the in vitro murine experiments except that stimulator cells and experimental compound were administered to intact laboratory mice. The impact of compound on CTL responses generated in vivo was determined by comparing the resultant CTL activity from test mice to the CTL activity generated in mice which received vehicle only.
Female C57BL/6 mice were used between the ages of 9-12 weeks. Mice were given food and water ad libitum and were kept in a 12-hour light and 12-hour dark cycle.
A balanced salt solution (BSS) was prepared as described for tissue culture medium in the in vitro murine experiments but was additionally supplemented to 0.01 molar with HEPES buffer.
The compound, 22,23-dehydro-1α,25S,26-trihydroxycholecalciferol was dissolved in dimethylsulfoxide at final concentrations of 2 or 4 mg per ml. When working with vitamin D compounds, conditions of reduced lighting were employed.
In vivo regimens. Mice were apportioned at 4 per group and were inoculated intraperitoneally with 3×10^6 allogeneic P815 tumor cells and the resulting CTL activity was assessed 10 days later. Mice were treated by the intraperitoneal route with 25 microliters of test compound dissolved in dimethylsulfoxide or with dimethylsulfoxide only (vehicle control). In test 1, mice were given daily treatments of 50 micrograms of 22,23-dehydro-1α,25S,26-trihydroxycholecalciferol per day starting one day before immunization and continuing until the day before assay. In test 2, mice were treated with 100 micrograms of 22,23-dehydro-1α,25S,26-trihydroxycholecalciferol only twice: on the day before immunization and on the day of immunization.
Assay for CTL activity. Ten days after immunization of mice with P815 cells, single spleen cell suspensions were prepared by passage of spleens through a steel mesh into BSS and were subsequently washed twice with BSS. Further manipulations of spleen cells, labeling of P815 target cells with ^51 Cr, mechanics of the assay, and the calculation of results from the CTL assay are the same as described earlier for the in vitro murine CTL tests. Cytotoxic T lymphocyte activity was determined individually on spleen cells from each animal in each group and the results are expressed as the mean CTL activity (as percent specific ^51 Cr release) of each group±the standard deviation.
Statistical analysis. A student's t-test was to compare the vehicle-treatedgroup to the test group in each test and the resultant p values are shown.

## C=C1/C(=C\C=C2/CCC[C@]3(C)[C@@H]([C@H](C)C[C@H](O)CC(C)(C)O)CC[C@@H]23)C[C@@H](O)C[C@@H]1O [1α,23S,25-(OH)3 --D3, 1α,23S,25-Trihydroxycholecalciferol]
[1]
  toxicity at concentrations suppressing human CTL generation (in words): non-toxic

## C=C1/C(=C\C=C2/CCC[C@]3(C)[C@@H]([C@H](C)C=CC[C@](C)(O)CO)CC[C@@H]23)C[C@@H](O)C[C@@H]1O [1α,25S,26-(OH)3 --Δ^22 -D3, 1α,25S,26-Trihydroxy-Δ^22-cholecalciferol]
[2]; both tests
  reduction in CTL activity in mice (in words): statistically significant reduction in CTL activity
[2]; test 1, 50 ug/dose intraperitoneal daily
  CTL activity (% specific ^51 Cr release): 13 ± 4 % specific ^51 Cr release
[2]; test 1, 50 ug/dose intraperitoneal daily, p < 0.05
  Inhibition of CTL activity (%): 58%
[2]; test 2, 100 ug/dose intraperitoneal, twice
  CTL activity (% specific ^51 Cr release): 14 ± 2 % specific ^51 Cr release
[2]; test 2, 100 ug/dose intraperitoneal, twice, p < 0.01
  Inhibition of CTL activity (%): 53%
